A short description of data set [1]: Physical form stability / conversion to Form 1. The format is physicochemical. How it is done:
The suspension was heated with a heat gun to dissolve most of the solids, and then left to slowly cool to room temperature. The resultant crystals were filtered and analysed by DSC, TGA, and XRPD.
Amorphous gepotidacin mesylate can be generated via lyophilization. Form 1 (150 mg) was dissolved MeCN/water (80/20 v/v; 1 mL). A clarifying filtration was performed and the filtrate was added to a 20 mL vial. The solution was frozen under liquid nitrogen and lyophilized for 4 hours.

Data set [2] in a line: Moisture sorption/desorption isotherms (DVS). The settings on record: first sorption cycle.
Excerpt: The moisture sorption/desorption isotherms of gepotidacin mesylate dihydrate and gepotidacin HCl were obtained over a range of 5-90% relative humidity.

This note sets out measurements from patent US12528809B2, “Crystalline forms of gepotidacin” (GLAXOSMITHKLINE INTELLECTUAL PROPERTY DEVELOPMENT LIMITED, priority 2020, dated 2026).

Take `CS(=O)(=O)O.O.O.O=c1ccc2ncc(=O)n3c2n1C[C@H]3CN1CCC(NCc2cc3c(cn2)OCCC3)CC1` [Amorphous gepotidacin mesylate]: the physical form stability entry is “started to convert to Form 1 unless stored in a sealed vial with desiccant” in data set [1] (amorphous by lyophilization from MeCN/water (80/20 v/v)) and “physically stable for at least three days” in data set [1] (amorphous by lyophilization of an aq. t-BuOH solution, ambient conditions).
As to `CS(=O)(=O)O.O.O.O=c1ccc2ncc(=O)n3c2n1C[C@H]3CN1CCC(NCc2cc3c(cn2)OCCC3)CC1` [Gepotidacin mesylate anhydrate (Form 2)], in data set [2], the “critical RH step” value is 60 % RH. Besides, the uptake of water in data set [2] (critical step at 60% RH, indicates conversion to Form 1) is 4.8%. Also, the physical form stability result in data set [1] (ambient conditions) is listed as “convert to Gepotidacin mesylate dihydrate (Form 1) after one hour”; in data set [1] (ambient conditions, listed as Gepotidacin Mesylate Anhydrate (Form 2)) it was “unstable under ambient conditions”.
